Assay: refractive index (Na D-line) (dimensionless); xn = mol fraction of the nth substance listed
Conditions: 101 kPa, Liquid, Standard Abbe refractometry

CCOC(=O)C(C)O (stereo not drawn) [DL-ethyl lactate] + CCC(C)=O
refractive index
Conditions | x1 = 0.0999 | x1 = 0.1999 | x1 = 0.3001 | x1 = 0.4001 | x1 = 0.5 | x1 = 0.5998 | x1 = 0.6999 | x1 = 0.8 | x1 = 0.9001 | x1 = 1
288.15 K | 1.3864 | 1.39058 | 1.39458 | 1.39808 | 1.40142 | 1.40472 | 1.40745 | 1.41049 | 1.41285 | 1.41571
293.15 K | 1.38393 | 1.38819 | 1.39209 | 1.39574 | 1.39914 | 1.40234 | 1.40537 | 1.40818 | 1.41078 | 1.41307
298.15 K | 1.38138 | 1.38566 | 1.38959 | 1.3933 | 1.39673 | 1.39997 | 1.40302 | 1.40585 | 1.40846 | 1.41076
303.15 K | 1.37882 | 1.38314 | 1.38712 | 1.39082 | 1.39428 | 1.39754 | 1.40061 | 1.40346 | 1.4061 | 1.40843
308.15 K | 1.37622 | 1.38055 | 1.38457 | 1.38833 | 1.39183 | 1.39511 | 1.39819 | 1.40105 | 1.40371 | 1.4061
313.15 K | 1.37361 | 1.37791 | 1.38199 | 1.38577 | 1.38931 | 1.39263 | 1.39575 | 1.39864 | 1.40133 | 1.40374
318.15 K | 1.37092 | 1.37524 | 1.37932 | 1.38316 | 1.38671 | 1.39001 | 1.39312 | 1.396 | 1.39886 | 1.40136
323.15 K | 1.36811 | 1.3724 | 1.3765 | 1.38033 | 1.38393 | 1.38737 | 1.39051 | 1.39348 | 1.39642 | 1.39898

CCOC(=O)C(C)O (stereo not drawn) [DL-ethyl lactate] + CN1CCCC1=O
refractive index
Conditions | x1 = 0.0999 | x1 = 0.2 | x1 = 0.3001 | x1 = 0.4 | x1 = 0.4997 | x1 = 0.6 | x1 = 0.7002 | x1 = 0.7999 | x1 = 0.8997 | x1 = 1
288.15 K | 1.46662 | 1.46071 | 1.45507 | 1.44952 | 1.44392 | 1.43817 | 1.43232 | 1.42648 | 1.42076 | 1.41537
293.15 K | 1.46449 | 1.45857 | 1.4529 | 1.44734 | 1.44172 | 1.43597 | 1.43014 | 1.4243 | 1.41855 | 1.41307
298.15 K | 1.46235 | 1.45645 | 1.45078 | 1.4452 | 1.43956 | 1.4338 | 1.42795 | 1.42209 | 1.41631 | 1.41076
303.15 K | 1.46021 | 1.45431 | 1.44863 | 1.44302 | 1.43738 | 1.43161 | 1.42575 | 1.41988 | 1.41406 | 1.40843
308.15 K | 1.45809 | 1.45218 | 1.44646 | 1.44084 | 1.43516 | 1.42939 | 1.42354 | 1.41768 | 1.41183 | 1.4061
313.15 K | 1.45594 | 1.45005 | 1.44428 | 1.43859 | 1.43288 | 1.4271 | 1.42126 | 1.41542 | 1.40957 | 1.40374
318.15 K | 1.45386 | 1.44796 | 1.44218 | 1.43648 | 1.43073 | 1.4249 | 1.41902 | 1.41312 | 1.40722 | 1.40136
323.15 K | 1.45178 | 1.44586 | 1.44006 | 1.43431 | 1.42854 | 1.42269 | 1.41679 | 1.41086 | 1.40492 | 1.39898
